Laboratory results taken from patent US20240368163A1, “COMPOUNDS AND METHODS FOR MODULATING SPLICING” (REMIX THERAPEUTICS INC., priority 2021, published 2024).

Key:
HTT [1] = assay: Splicing RT-qPCR assay, HTT mRNA canonical junction (CJ) and alternative junction (AJ); assay type: cell-based, human; conditions: for AC50: increase in AJ mRNA
In short: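 Splicing switch read by one-step RT-qPCR of canonical and alternative exon junctions, housekeeper-normalized (GAPDH/GUSB/PPIA), 2^(−ΔΔCt) vs DMSO as percent response. Cells (A673 or K562) dosed 24 h, 11 points 3-fold from 10 uM, DMSO ≤0.25%.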

HTT [2] = assay: HiBiT protein abundance assay, HTT; assay type: cell-based, human; conditions: Table 13A, modified K562 cells
In short: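 HiBiT-tagged endogenous targets in K562 cells treated 24 h at 37° C. with 10-point 3-fold dilutions (top 10 μM, DMSO ≤0.25%). Luminescence read after lytic LgBiT detection; response normalised to unmodified-cell and DMSO controls, IC50 interpolated at 50% from four-parameter logistic fit.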

[3] = Homo sapiens, 24 h, A673 or K562 cells, 24 hours treatment, RT-qPCR
[4] = Homo sapiens, RT-qPCR panel, canonical junction mRNA, compound concentration having 50% response in CJ decrease, read-out: HTT IC50 (decrease in CJ mRNA levels)
[5] = Homo sapiens, 24 h, decrease in CJ mRNA, A673 or K562 cells, 24 hours treatment, RT-qPCR, read-out: HTT CJ IC50
[6] = RT-qPCR panel, canonical junction mRNA, compound concentration having 50% response in CJ decrease, read-out: HTT IC50 (decrease in CJ mRNA levels)

| IC50 (HTT [1]; decrease in CJ mRNA, A673 or K562 cells, 24 hours treatment, RT-qPCR, read-out: HTT CJ IC50) | SMILES | AC50 (HTT [1]; [3]) | IC50 (HTT [1]; [4]) | IC50 (HTT [2]; Homo sapiens, K562, 24 h) | IC50 (HTT [1]; [5]) | IC50 (HTT [1]; [6]) | IC50 (HTT [2]; 24 hours) |
| --- | --- | --- | --- | --- | --- | --- | --- |
| – | CCN(c1ccc(-c2ccc(-c3cn[nH]c3)c3ncsc23)nn1)[C@@H]1C[C@H]2CCC[C@@H](C1)N2 [Compound 228] | 100 to 1000 nM | < 100 nM | < 100 nM | – | – | – |
| – | CN(c1ccc(-c2ccc(-c3cnn(C)c3)c3cn[nH]c23)nn1)C1CCNCC1 [Compound 242] | > 10000 nM | > 10000 nM | 1000 to 10000 nM | > 10000 nM | – | – |
| – | CN(c1ccc(-c2cc(F)c(-c3cnn(C)c3)c3cn[nH]c23)nn1)[C@@H]1C[C@H]2CC[C@@H](C1)N2 [Compound 291] | < 100 nM | < 100 nM | < 100 nM | – | – | – |
| – | c1n[nH]cc1-c1ccc(-c2ccc(N[C@@H]3C[C@H]4CCC[C@@H](C3)N4)nn2)c2[nH]ncc12 [Compound 294] | 100 to 1000 nM | 100 to 1000 nM | 100 to 1000 nM | 100 to 1000 nM | – | – |
| – | CC1(C)CC(Oc2ccc(-c3cc(F)c(-c4cn[nH]c4)c4cn[nH]c34)nn2)CC(C)(C)N1 [Compound 307] | 100 to 1000 nM | 100 to 1000 nM | < 100 nM | 100 to 1000 nM | – | – |
| – | c1nc2c(-c3cn[nH]c3)ccc(-c3ccc(N(C4CC4)C4C[C@H]5CCC[C@@H](C4)N5)nn3)c2s1 (stereo partly shown) [Compound 311] | < 100 nM | < 100 nM | 100 to 1000 nM | – | – | – |
| – | Fc1cc(-c2ccc(OC3CC4CC(F)(F)C(C3)N4)nn2)c2[nH]ncc2c1-c1cn[nH]c1 (stereo not shown) [Compound 313, 7-[6-({6,6-difluoro-8-azabicyclo[3.2.1]octan-3-yl}oxy)pyridazin-3-yl]-5-fluoro-4-(1H-pyrazol-4-yl)-1H-indazole] | 100 to 1000 nM | < 100 nM | 100 to 1000 nM | – | – | – |
| – | Fc1cc(-c2ccc(O[C@@H]3C[C@H]4CC[C@@H](C3)N4)nn2)c2sncc2c1-c1cn[nH]c1 [Compound 327] | < 100 nM | < 100 nM | < 100 nM | – | – | – |
| – | COc1cc(-c2ccc(-c3ccc(N(C)C4CC(C)(C)NC(C)(C)C4)nn3)c3scnc23)cnn1 [Compound 330] | < 100 nM | < 100 nM | < 100 nM | – | – | – |
| 100 to 1000 nM | CC(C)(C)NC1CCN(c2ccc(-c3ccc(-c4cn[nH]c4)c4ncsc34)nn2)C1 (stereo not shown) [Compound 336] | – | – | < 100 nM | – | 100 to 1000 nM | – |
| – | c1nc2c(-c3cn[nH]c3)ccc(-c3ccc(N4CCC(NC5CC5)C4)nn3)c2s1 (stereo not shown) [Compound 337] | 1000 to 10000 nM | > 10000 nM | 1000 to 10000 nM | > 10000 nM | – | – |
| – | Fc1cc(-c2ccc(N[C@@H]3C[C@H]4CC[C@@H](C3)N4)nn2)c2scnc2c1-c1cn[nH]c1 [Compound 339] | < 100 nM | < 100 nM | < 100 nM | – | – | – |
| – | Cc1ncc(-c2ccc(-c3ccc(O[C@@H]4C[C@H]5CC[C@@H](C4)N5)nn3)c3scnc23)s1 [Compound 348, 7-{6-[(exo)-8-azabicyclo[3.2.1]octan-3-yloxy]pyridazin-3-yl}-4-(2-methyl-1,3-thiazol-5-yl)-1,3-benzothiazole] | 100 to 1000 nM | < 100 nM | < 100 nM | – | – | – |
| – | CN(c1ccc(-c2ccc(-c3cn[nH]c3)c3ncsc23)nn1)[C@H]1C[C@H]2COC[C@@H](C1)N2 [Compound 356, (endo)-N-methyl-N-{6-[4-(1H-pyrazol-4-yl)-1,3-benzothiazol-7-yl]pyridazin-3-yl}-3-oxa-9-azabicyclo[3.3.1]nonan-7-amine] | – | – | – | – | < 100 nM | < 100 nM |
| – | COc1cc(-c2ccc(-c3ccc(O[C@@H]4C[C@H]5CC[C@@H](C4)N5)nn3)c3scnc23)cnn1 [Compound 362] | < 100 nM | < 100 nM | < 100 nM | – | – | – |
| – | Fc1ccn(-c2ccc(-c3ccc(O[C@@H]4C[C@H]5CC[C@@H](C4)N5)nn3)c3scnc23)n1 [Compound 363] | 100 to 1000 nM | < 100 nM | < 100 nM | – | – | – |
| – | CN(c1ncc(-c2ccc(-n3cccn3)c3[nH]ncc23)nn1)[C@@H]1C[C@H]2CCC[C@@H](C1)N2 [Compound 551] | – | < 100 nM | < 100 nM | – | – | – |
| – | c1cnn(-c2ccc(-c3cnc(N[C@@H]4C[C@H]5CC[C@@H](C4)N5)nn3)c3cn[nH]c23)c1 [Compound 556] | – | < 100 nM | < 100 nM | – | – | – |
| – | c1cnn(-c2ccc(-c3cnc(N[C@@H]4C[C@H]5CCC[C@@H](C4)N5)nn3)c3cn[nH]c23)c1 [Compound 561] | – | < 100 nM | < 100 nM | – | – | – |
| – | CC(C)(C)C1CN(c2ncc(-c3ccc(-n4cccn4)c4[nH]ncc34)nn2)CCN1 (stereo not shown) [Compound 572] | – | < 100 nM | < 100 nM | – | – | – |
| – | CN(c1ncc(-c2ccc(-n3cncn3)c3[nH]ncc23)nn1)[C@@H]1C[C@H]2CCC[C@@H](C1)N2 [Compound 574] | – | < 100 nM | < 100 nM | – | – | – |
